One block for each molecule: values may come before it. The source made the active and inactive calls. No cut-off for these calls is given here.
Assays:
A549 = assay: Cytotoxicity against human A549 cells at 10 uM; assay type: functional, cell-based
[1] = target: T1, MAP kinase p38 (Homo sapiens) (UniProt O15264+Q15759+Q16539+P53778); assay: Activation of MAPK p38 in human HaCaT cells assessed as nuclear translocation of Nrf2 measured after 6 hrs by Western blot analysis; assay type: cell-based
[2] = target: T1, MAP kinase p38 (Homo sapiens); assay: Induction of MAPK p38 phosphorylation in human HaCaT cells at 20 uM up to 6 hrs by Western blot analysis; assay type: cell-based
[3] = target: T1, MAP kinase p38 (Homo sapiens); assay: Induction of MAPK p38 phosphorylation in human HaCaT cells at 20 uM after 2 hrs in presence of MAPK p38 inhibitor SB239063 by Western blot analysis; assay type: cell-based
[4] = target: T2, Nuclear factor erythroid 2-related factor 2 (Homo sapiens) (UniProt Q16236); assay: Activation of Nrf2 in human HaCaT cells assessed as increase in HO-1 expression level at 20 uM by Western blot analysis; assay type: cell-based; conditions: TDE = time-dependent effect
T2 sequence (whole entry): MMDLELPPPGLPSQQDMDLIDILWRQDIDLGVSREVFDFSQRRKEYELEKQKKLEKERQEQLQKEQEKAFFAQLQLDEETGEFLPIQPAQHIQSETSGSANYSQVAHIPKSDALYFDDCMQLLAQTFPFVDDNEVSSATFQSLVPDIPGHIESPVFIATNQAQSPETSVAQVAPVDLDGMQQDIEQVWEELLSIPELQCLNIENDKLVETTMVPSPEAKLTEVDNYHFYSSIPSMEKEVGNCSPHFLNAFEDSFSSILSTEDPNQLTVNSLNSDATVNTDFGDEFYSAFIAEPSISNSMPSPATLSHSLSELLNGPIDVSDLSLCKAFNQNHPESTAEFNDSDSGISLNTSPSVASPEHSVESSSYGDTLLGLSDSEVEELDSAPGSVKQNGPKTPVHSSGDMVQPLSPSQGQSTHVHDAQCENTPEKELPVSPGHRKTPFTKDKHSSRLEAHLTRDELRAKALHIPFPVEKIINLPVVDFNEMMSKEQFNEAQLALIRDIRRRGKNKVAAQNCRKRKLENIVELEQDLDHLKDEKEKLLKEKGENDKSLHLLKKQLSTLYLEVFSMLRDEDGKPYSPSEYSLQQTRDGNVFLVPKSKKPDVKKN

[5] = target: T1, MAP kinase p38 (Homo sapiens); assay: Activation of MAPK p38 in human HaCaT cells assessed as upregulation of Nrf2 protein expression in nucleus at 20 uM after 6 hrs in presence of MAPK p38 inhibitor SB239063 by Western blot analysis; assay type: cell-based
[6] = target: T2, Nuclear factor erythroid 2-related factor 2 (Homo sapiens); assay: Activation of Nrf2 in human HaCaT cells assessed as increase in HO-1 mRNA expression after 12 hrs by RT-qPCR analysis; assay type: cell-based
[7] = target: T1, MAP kinase p38 (Homo sapiens); assay: Activation of MAPK p38 in human HaCaT cells assessed as upregulation of Nrf2 mRNA expression at 20 uM measured up to 6 hrs RT-qPCR analysis; assay type: cell-based
[8] = target: T1, MAP kinase p38 (Homo sapiens); assay: Activation of MAPK p38 in human HaCaT cells assessed as nuclear translocation of Nrf2 at 10 uM measured after 6 hrs Western blot analysis; assay type: cell-based
HaCaT [9] = assay: Upregulation of HO-1 protein expression in human HaCaT cells transfected with Nrf2-siRNA at 20 uM after 6 hrs by Western blot analysis; assay type: functional, cell-based
[10] = target: T2, Nuclear factor erythroid 2-related factor 2 (Homo sapiens); assay: Activation of Nrf2 in human HaCaT cells assessed as increase in HO-1 expression level after 12 hrs by Western blot analysis; assay type: cell-based
[11] = target: T2, Nuclear factor erythroid 2-related factor 2 (Homo sapiens); assay: Activation of Nrf2 in human HaCaT cells assessed as upregulation of HO-1 protein expression at 20 uM after 12 hrs in presence of MAPK p38 inhibitor SB239063 by Western blot analysis; assay type: cell-based
[12] = target: T1, MAP kinase p38 (Homo sapiens); assay: Activation of MAPK p38 in human HaCaT cells assessed as nuclear translocation of Nrf2 at 20 uM after 6 hrs by DAPI staining-based immunofluorescence microscopic method; assay type: cell-based
HaCaT [13] = assay: Upregulation of Nrf2 protein expression in human HaCaT cells transfected with Nrf2-siRNA at 20 uM after 6 hrs by Western blot analysis; assay type: functional, cell-based
HaCaT [14] = assay: Cytotoxicity against human HaCaT cells assessed as reduction in cell viability at 5 to 20 uM after 24 to 48 hrs by WST-8 assay; assay type: cell-based
HaCaT [15] = assay: Cytoprotective activity against H2O2-induced cell damage in human HaCaT cells assessed as cell survival preincubated for 20 hrs followed by H2O2 addition measured after 4 hrs by WST-8 assay; assay type: functional, cell-based
PC-9 = assay: Cytotoxicity against human PC9 cells at 10 uM; assay type: functional, cell-based
HepG2 = assay: Cytotoxicity against human HepG2 cells at 10 uM; assay type: functional, cell-based
[16] = target: T1, MAP kinase p38 (Homo sapiens); assay: Activation of MAPK p38 in human HaCaT cells assessed as upregulation of Nrf2 mRNA expression measured up to 6 hrs RT-qPCR analysis; assay type: cell-based
HaCaT [17] = assay: Induction of ARE promoter activity in human HaCaT cells transfected with Nrf2-siRNA at 5 to 20 uM after 6 hrs by luciferase reporter gene assay; assay type: functional, cell-based
[18] = target: T2, Nuclear factor erythroid 2-related factor 2 (Homo sapiens); assay: Activation of Nrf2 in human HaCaT cells assessed as increase in HO-1 mRNA expression at 20 uM by Western blot analysis; assay type: cell-based; conditions: TDE = time-dependent effect
[19] = target: T2, Nuclear factor erythroid 2-related factor 2 (Homo sapiens); assay: Activation of Nrf2 in human HaCaT cells transfected with ARE-luciferase containing ARE consensus sequence assessed as Nrf2 binding to ARE at 20 uM after 6 hrs by luciferase reporter gene assay; assay type: cell-based

Activity [1]: Dose-dependent effect | Activity [2]: Active | Activity [3]: inactive | Activity [4]: Tde | Activity [5]: inactive | Activity [6]: Dose-dependent effect | Activity [7]: Active | Activity [8]: Active | Activity [10]: Dose-dependent effect | Activity [11]: inactive | Activity [12]: Active | Activity [16]: Dose-dependent effect | Activity [18]: Tde | Activity [19]: Active
SMILES: COc1ccc2cc(N(C)C(=O)C3=NO[C@H]4[C@H](O)C=C[C@@H](Cl)[C@@]4(O)C3)c(=O)oc2c1OC
Activity (A549): Active | Activity (HaCaT [9]): inactive | Activity (HaCaT [13]): inactive | Activity (HaCaT [14]): Non-Toxic | Activity (HaCaT [15]): Dose-dependent effect | Activity (PC-9): Active | Activity (HepG2): Active | Activity (HaCaT [17]): inactive

SMILES: COc1ccc2cc(NC(=O)C3=NO[C@H]4[C@H](O)C=C[C@@H](Cl)[C@@]4(O)C3)c(=O)oc2c1OC
Activity (A549): Active | Activity (PC-9): Active | Activity (HepG2): Active

From ChEMBL document CHEMBL4177697, “N-Me-trichodermamide B isolated from Penicillium janthinellum, with antioxidant properties through Nrf2-mediated signaling pathway” (Bioorg Med Chem, 2017)
